This data set has as its system rodent carcinogenicity bioassays, tumor incidence. The data set is described as follows: CCRIS carcinogenicity studies. In outline:
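Archive of carcinogenicity, mutagenicity, tumor promotion and tumor inhibition results drawn from journals, NCI reports and other sources, expert-reviewed; covers 1985-2011 and is no longer updated.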

Active and inactive are the calls of the source. The rule behind the calls is not given here.

In the case of `C1CC[CH]([Sn]([CH]2CCCCC2)[CH]2CCCCC2)CC1`, the carcinogen call runs as follows: (Species: Mouse, Strain/Sex: B6C3F1/Female (50/group), Route: Oral, Dose: 0, 1, 3, 6 mg/kg of 98% pure cyhexatin in diet for 2 years, Dose: 0, 1, 3, 6 mg/kg of 98% pure cyhexatin in diet for 2 years) “inactive; negative, (dpr evaluator indicated inadequate justification of dose and too narr”; (Species: Mouse, Strain/Sex: B6C3F1/Male (50/group), Route: Oral, Dose: 0, 1, 3, 6 mg/kg of 98% pure cyhexatin in diet for 2 years, Dose: 0, 1, 3, 6 mg/kg of 98% pure cyhexatin in diet for 2 years) “inactive; negative, (dpr evaluator indicated inadequate justification of dose and too narr”.

Turning to `CCNC(=O)Nc1ncc([N+](=O)[O-])s1`, the carcinogen call is, setting by setting: (Species: MOUSE, Strain/Sex: B6C3F1/FEMALE, Route: ORAL, Dose: 0, 2500, 5000 PPM IN DIET FOR 94 WK (STUDY DURATION: 104 WK), Dose: 0, 2500, 5000 PPM IN DIET FOR 94 WK (STUDY DURATION: 104 WK), Tumor Site: Type of Lesion: LIVER: HEPATOCELLULAR ADENOMA OR CARCINOMA) “equivocal”; (Species: MOUSE, Strain/Sex: B6C3F1/MALE, Route: ORAL, Dose: 0, 2500, 5000 PPM IN DIET FOR 94 WK (STUDY DURATION: 104 WK), Dose: 0, 2500, 5000 PPM IN DIET FOR 94 WK (STUDY DURATION: 104 WK), Tumor Site: Type of Lesion: LIVER: HEPATOCELLULAR CARCINOMA OR ADENOMA) “active; positive”; (Species: RAT, Strain/Sex: F344/FEMALE, Route: ORAL, Dose: 0, 625, 1250 PPM IN DIET FOR 94 WK (STUDY DURATION: 104 WK), Dose: 0, 625, 1250 PPM IN DIET FOR 94 WK (STUDY DURATION: 104 WK), Tumor Site: Type of Lesion: INTEGUMENTARY SYSTEM (SKIN AND SUBCUTANEOUS TISSUE) AND MAMMARY GLAND: FIBROADENOMA OR CYSTADENOMA (NOS)) “active; positive”; (Species: RAT, Strain/Sex: F344/MALE, Route: ORAL, Dose: 0, 625, 1250 PPM IN DIET FOR 94 WK (STUDY DURATION: 104 WK), Dose: 0, 625, 1250 PPM IN DIET FOR 94 WK (STUDY DURATION: 104 WK)) “inactive; negative”.

As for `CC(I)C1OCC(CO)O1` (stereo not given), the carcinogen call by setting is: (Species: MOUSE, Strain/Sex: B6C3F1/FEMALE, Route: GAVAGE, Dose: 0, 62, 125 MG/KG IN WATER 5 D/WK FOR 103 WK (STUDY DURATION: 106 WK), Dose: 0, 62, 125 MG/KG IN WATER 5 D/WK FOR 103 WK (STUDY DURATION: 106 WK), Tumor Site: Type of Lesion: FORESTOMACH: SQUAMOUS CELL PAPILLOMA, ANTERIOR PITUTARY GLAND: ADENOMA, HARDERIAN GLAND: ADENOMA, ADENOMA OR CARCINOMA, Tumor Site: Type of Lesion: FORESTOMACH: SQUAMOUS CELL PAPILLOMA, ANTERIOR PITUTARY GLAND: ADENOMA, HARDERIAN GLAND: ADENOMA, ADENOMA OR CARCINOMA) “active; positive”; (Species: MOUSE, Strain/Sex: B6C3F1/MALE, Route: GAVAGE, Dose: 0, 125, 250 MG/KG IN WATER 5 D/WK FOR 103 WK (STUDY DURATION: 106 WK), Dose: 0, 125, 250 MG/KG IN WATER 5 D/WK FOR 103 WK (STUDY DURATION: 106 WK)) “inactive; negative”; (Species: RAT, Strain/Sex: F344/FEMALE, Route: GAVAGE, Dose: 0, 62, 125 MG/KG IN WATER 5 D/WK FOR 103 WK (STUDY DURATION: 105 WK), Dose: 0, 62, 125 MG/KG IN WATER 5 D/WK FOR 103 WK (STUDY DURATION: 105 WK)) “inactive; negative”; (Species: RAT, Strain/Sex: F344/MALE, Route: GAVAGE, Dose: 0, 125, 250 MG/KG IN WATER 5 D/WK FOR 103 WK (STUDY DURATION: 105 WK), Dose: 0, 125, 250 MG/KG IN WATER 5 D/WK FOR 103 WK (STUDY DURATION: 105 WK), Tumor Site: Type of Lesion: HEMATOPOIETIC SYSTEM: MONONUCLEAR CELL LEUKEMIA, THYROID GLAND: FOLLICULAR CELL CARCINOMA) “active; positive”.

In the case of `CC(=O)N(O)c1ccc2ccc3cccc4ccc1c2c34`, the carcinogen call (Species: RAT, Strain/Sex: STRAIN-CD/FEMALE, Route: INTRAPERITONEAL, Dose: 0, 67 UMOL/KG BW IN DMSO 3/WK FOR 4 WK (STUDY DURATION: 61 WK)) is “inactive; negative” and the carcinogen call (Species: RAT, Strain/Sex: STRAIN-CD/FEMALE, Route: INTRAPERITONEAL, Dose: 0, 67 UMOL/KG/BW IN 25 UMOL/ML DMSO 3/WK FOR 4 WK (TOTAL DOSE: 0; 119 UMOL) ADMINISTERED TO WEANLING RATS (STUDY DURATIO, Dose: 0, 67 UMOL/KG/BW IN 25 UMOL/ML DMSO 3/WK FOR 4 WK (TOTAL DOSE: 0; 119 UMOL) ADMINISTERED TO WEANLING RATS (STUDY DURATIO) was “inactive; negative”.

For the compound `Cc1ccc2ncccc2c1`, the carcinogen call (Species: RAT, Strain/Sex: F344/MALE,FEMALE, Route: ORAL, Dose: 0.05% IN DIET FOR 2 YR) was “inactive; negative”.

For `O=CNNc1nc(-c2ccc([N+](=O)[O-])o2)cs1`, the carcinogen call is “active; positive” (Species: HAMSTER, Route: ORAL, Tumor Site: Type of Lesion: FORESTOMACH, URINARY BLADDER); “active; positive” (Species: MOUSE, Route: ORAL, Tumor Site: Type of Lesion: FORESTOMACH, HEMATOPOIETIC SYSTEM (LEUKEMIA), LUNG, STOMACH, Tumor Site: Type of Lesion: FORESTOMACH, HEMATOPOIETIC SYSTEM (LEUKEMIA), LUNG, STOMACH); “active; positive” (Species: RAT, Route: ORAL, Tumor Site: Type of Lesion: HEMATOPOIETIC SYSTEM (LEUKEMIA), KIDNEY, LIVER, MAMMARY GLAND, Tumor Site: Type of Lesion: HEMATOPOIETIC SYSTEM (LEUKEMIA), KIDNEY, LIVER, MAMMARY GLAND).

As to `COP(=S)(OC)Oc1ccc([N+](=O)[O-])cc1`, the carcinogen call was “inactive; negative” (Species: MOUSE, Strain/Sex: B6C3F1/FEMALE, Route: ORAL, Dose: 0, 62.5, 125 PPM IN DIET, Dose: 0, 62.5, 125 PPM IN DIET); “inactive; negative” (Species: MOUSE, Strain/Sex: B6C3F1/MALE, Route: ORAL, Dose: 0, 35, 77 PPM IN DIET, TWA, Dose: 0, 35, 77 PPM IN DIET, TWA); “inactive; negative” (Species: RAT, Strain/Sex: F344/FEMALE, Route: ORAL, Dose: 0, 20, 40 PPM IN DIET, Dose: 0, 20, 40 PPM IN DIET); “inactive; negative” (Species: RAT, Strain/Sex: F344/MALE, Route: ORAL, Dose: 0, 20, 40 PPM IN DIET, Dose: 0, 20, 40 PPM IN DIET).

(Values after PubChem BioAssay AID1259411 (Chemical Carcinogenesis Research Information System (CCRIS), 2018).)
